Laboratory results as given in patent US20060069132A1, “Azolecarboxamide herbicides” (priority 2004, published 2006).

Legend:
large crabgrass = experiment: Test A pre-/postemergence herbicide test; type: in vivo, Digitaria sanguinalis
Procedure, shortened: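 Both application timings were run together: directed soil spray over freshly planted seeds in sandy loam, and runoff spray onto 2–10 cm seedlings. Evaluation after ~10 days in greenhouse used a 0–100 visual scale versus untreated controls.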

chickweed = experiment: Test C postemergence herbicide test; type: in vivo, Stellaria media; settings: for Chickweed plant response rating: 500 g ai/ha
Procedure: At the same time, plants selected from these crop and weed species and also winter barley (Hordeum vulgare L.), blackgrass (Alopecurus myosuroides Huds.), canarygrass (Phalaris minor Retz.), chickweed (Stellaria media (L.) Vill.), downy bromegrass (Bromus tectorum L.), green foxtail (Setaria viridis (L.) Beauv.), Italian ryegrass (Lolium multiflorum Lam.), wheat (Triticum aestivum L.), wild oat (Avenafatua L.) and windgrass (Apera spica-venti (L.) Beauv.) were treated with postemergence applications of some of the test chemicals formulated in the same manner. Plants ranged in height from 2 to 18 cm (1- to 4-leaf stage) for postemergence treatments. Plant species in the flooded paddy test consisted of rice (Oryza sativa), smallflower umbrella sedge (Cyperus difformis L.), ducksalad (Heteranthera limosa (Sw.) Willd.) and barnyardgrass (Echinochloa crus-galli (L.) Beauv.) grown to the 2-leaf stage for testing. Treated plants and controls were maintained in a greenhouse for 12 to 14 days, after which time all species were compared to controls and visually evaluated. Plant response ratings, summarized in Table C, are based on a scale of 0 to 100 where 0 is no effect and 100 is complete control. A dash (-) response means no test result.

[1] = Postemergence, 500 g ai/ha, 0 to 100 scale, 0 no effect, 100 complete control
[2] = Postemergence, 2000 g ai/ha, 0 to 100 scale, 0 no effect, 100 complete control
[3] = Preemergence, 500 g ai/ha, visual rating, 0 to 100 scale (0 no effect, 100 complete control)
[4] = Preemergence, 2000 g ai/ha, 0 to 100 scale, 0 no effect, 100 complete control
[5] = Postemergence, 250 g ai/ha, scale 0 to 100, 0 no effect, 100 complete control
[6] = postemergence, 125 g ai/ha, scale 0 to 100
[7] = postemergence, 31 g ai/ha, scale 0 to 100
[8] = postemergence, 62 g ai/ha, scale 0 to 100

| SMILES | Plant response rating, Crabgrass, Large (large crabgrass; [1]) | Plant response rating, Crabgrass, Large (large crabgrass; [2]) | Crabgrass, Large plant response rating (large crabgrass; [3]) | Crabgrass, Large plant response rating (large crabgrass; [4]) | Plant response rating, Chickweed (chickweed; [5]) | Plant response rating, Chickweed (chickweed; [6]) | Plant response rating, Chickweed (chickweed; [7]) | Plant response rating, Chickweed (chickweed; [8]) | Crabgrass, Large plant response rating (large crabgrass; [1]) | Chickweed plant response rating (chickweed; Postemergence, scale 0 to 100) | Crabgrass, Large plant response rating (large crabgrass; Preemergence, 2000 g ai/ha, visual rating, 0 to 100 scale (0 no effect, 100 complete control)) |
| --- | --- | --- | --- | --- | --- | --- | --- | --- | --- | --- | --- |
| CCn1nc(C(C)(C)C)cc1C(=O)Nc1ccc(F)c(C(=O)NCCF)c1 [Compound 60] | 20 | 55 | 75 | 95 | 10 | 10 | 5 | 5 |  |  |  |
| CCn1nc(C(C)(C)C)cc1C(=O)Nc1cccc(C(=O)OC)c1 [Compound 81] |  |  |  |  | 100 | 95 | 90 | 95 |  |  |  |
| C#CCOC(=O)c1cccc(NC(=O)c2cc(C(C)(C)C)nn2CC)c1 [Compound 84] |  | 20 | 0 | 0 | 70 | 50 |  | 0 | 20 | 70 |  |
| C=CCOC(=O)c1cccc(NC(=O)c2cc(C(C)(C)C)nn2CC)c1 [Compound 85] |  | 30 | 0 | 5 | 100 | 100 |  | 100 | 20 | 100 |  |
| CC(=NO)c1cccc(NC(=O)c2cc(C(C)(C)C)nn2CC(F)(F)F)c1 [Compound 112] |  | 30 | 45 |  | 100 | 10 |  | 0 | 25 | 100 | 55 |
